Here are results for eight compounds from patent US8466107B2, “Fibrin-binding peptides and conjugates thereof” (Bracco Imaging SpA, priority 2006, dated 2013).

One assay concerns the target T1, fibrin (Homo sapiens, UniProt P02671+P02675+P02679).
T1 sequence (P02671 36-629 limits assumed): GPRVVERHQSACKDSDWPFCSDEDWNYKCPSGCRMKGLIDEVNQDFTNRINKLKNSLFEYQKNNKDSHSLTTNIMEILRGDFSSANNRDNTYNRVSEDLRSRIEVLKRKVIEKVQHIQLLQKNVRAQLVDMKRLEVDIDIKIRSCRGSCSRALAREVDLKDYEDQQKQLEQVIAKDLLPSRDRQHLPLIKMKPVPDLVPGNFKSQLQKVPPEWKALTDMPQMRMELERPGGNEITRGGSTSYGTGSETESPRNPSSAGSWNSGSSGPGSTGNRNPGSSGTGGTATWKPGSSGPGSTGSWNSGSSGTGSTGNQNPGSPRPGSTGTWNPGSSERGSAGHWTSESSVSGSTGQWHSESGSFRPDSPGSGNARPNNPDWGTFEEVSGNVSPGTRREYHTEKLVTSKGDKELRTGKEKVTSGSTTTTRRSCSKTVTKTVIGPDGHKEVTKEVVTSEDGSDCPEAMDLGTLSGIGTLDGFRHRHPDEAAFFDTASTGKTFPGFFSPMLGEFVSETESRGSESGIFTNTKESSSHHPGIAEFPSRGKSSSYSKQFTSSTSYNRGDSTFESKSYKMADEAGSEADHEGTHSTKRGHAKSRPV
T1 sequence (P02675 45-491 limits assumed): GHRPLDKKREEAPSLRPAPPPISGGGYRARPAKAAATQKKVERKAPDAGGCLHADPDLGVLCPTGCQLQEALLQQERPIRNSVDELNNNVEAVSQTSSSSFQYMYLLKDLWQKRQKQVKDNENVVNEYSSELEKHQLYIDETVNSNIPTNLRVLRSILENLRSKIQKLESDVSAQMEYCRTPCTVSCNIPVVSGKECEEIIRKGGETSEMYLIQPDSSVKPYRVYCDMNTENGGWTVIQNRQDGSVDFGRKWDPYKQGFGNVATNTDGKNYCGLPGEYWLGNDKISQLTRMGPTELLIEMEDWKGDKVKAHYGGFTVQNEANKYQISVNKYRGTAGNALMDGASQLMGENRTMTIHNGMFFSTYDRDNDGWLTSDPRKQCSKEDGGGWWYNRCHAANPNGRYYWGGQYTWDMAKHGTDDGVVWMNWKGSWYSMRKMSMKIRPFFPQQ
T1 sequence (P02679 27-437 isoform P02679-2 limits assumed): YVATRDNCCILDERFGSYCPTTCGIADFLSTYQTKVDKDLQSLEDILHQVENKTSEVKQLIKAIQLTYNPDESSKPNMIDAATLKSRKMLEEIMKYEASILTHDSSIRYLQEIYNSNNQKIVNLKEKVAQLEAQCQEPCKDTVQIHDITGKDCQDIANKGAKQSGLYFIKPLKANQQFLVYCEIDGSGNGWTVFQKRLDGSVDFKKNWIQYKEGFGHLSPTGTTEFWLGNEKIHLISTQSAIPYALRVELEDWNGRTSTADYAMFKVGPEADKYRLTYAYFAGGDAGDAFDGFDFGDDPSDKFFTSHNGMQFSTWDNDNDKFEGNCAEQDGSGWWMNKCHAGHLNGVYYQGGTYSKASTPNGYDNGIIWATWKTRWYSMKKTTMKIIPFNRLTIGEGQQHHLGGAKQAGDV
The assay is described as follows: Dynamic binding test of targeted microvesicles on fibrin-coated coverslips in a parallel-plate flow chamber. The note with it: microvesicles with DSPC/DSPA envelope, 0.26 μmoles lipopeptide (Examples 20E, 20G, 20H); shear rate about 114 s^-1, 10 min, 50% human plasma. The method, then: Glass coverslips (40 mm in diameter, Bioptechs Inc., Butler, Pa., USA) were coated with fibrin according the following methodology.
Five mL of a solution of BSA 1% w/v in PBS pH 7.4 were added into a 60 mm Petri Dish containing one coverslip, and incubated at 37° C. for 15 min. Then the coverslip was washed three times with 5 ml of Tween 80/PBS (0.1%, v:v). Twenty five μL of human thrombin solution at 5 U/mL were added per mL of human fibrinogen solution (0.5 mg/mL in 50 mM sodium phosphate, NaCl 280 mM, pH 7.4) and delicately mixed. Five mL of this solution were immediately distributed in each Petri dish. The coverslips were incubated for one hour at 37° C. and then dried overnight at 45° C.
Binding studies of targeted microvesicles were carried out using a parallel-plate flow chamber (FCS2, Bioptech Inc., Butler, Pa., USA) with a chamber gasket of 0.25 mm in thickness, with a customized adapter for upside-down chamber inversion. The coated coverslip was inserted as a plate of the flow chamber. Gas-filled Microvesicles (5×10^6 bubbles/mL in 50% human plasma in PBS) were drawn through the flow chamber using an adjustable infusion pump (Auto Syringe® AS50 Infusion Pump, Baxter, Deerfield, Ill., USA) with a 60 mL syringe (Terumo). The pump flow rate was adjusted to 1 mL/min to obtain the desired shear rate of about 114 s^−1. After 10 minutes, the flow was stopped and pictures were taken randomly on different positions on the coverslip (on surfaces of about 0.025 mm^2) using a 40× objective and a CCD monochrome camera (F-View II, Soft Imaging Systems, Germany) connected to an inverted Olympus IX 50 microscope. The number of microvesicles on each picture was determined, averaged with respect to the total number of pictures and the obtained value was then divided by ten (to obtain the “slope”, i.e. the average amount of bound microvesicles per minute).
For each preparation of Examples 17-20, the binding assay was repeated four times thus obtaining an average value of the slope. The slope represents the microvesicle binding rate on the target substrate. […] A higher slope indicates a better capacity of microvesicles to bind to the target under flow conditions.

In assay [1] the target is DDE (fibrin-derived polypeptide) (Homo sapiens, UniProt P02671+P02675+P02679). The assay is described as follows: Direct binding fluorescence polarization (FP) assay using 5-carboxyfluorescein labeled peptides. The note with it: 20 nM CF5-labeled peptide, serial dilutions of DDE, anisotropy read at 485 nm; read-out: KD (μM) Direct Binding (n = 2).

Numbered stars: 1 amine (or outer) side, 2 acyl side, 3 side chain; on linkers, the order of the positions; unused ones are H or OH. Bridge positions count the residues as written; N and C are the ends. Square brackets hold non-standard residues; d marks the D form. Side chains are listed from the residue outwards. Peptide text beside a SMILES is read from it. * marks the point of attachment. ξ: configuration not given here. DPPE = CCCCCCCCCCCCCCCC(=O)OC[C@H](COP(=O)(O)OCCN*)OC(=O)CCCCCCCCCCCCCCC; Tuda = 3,6,9-trioxaundecane-1,11-dioyl, O=C(COCCOCCOCC(=O)[*:3])[*:2]; 5FAM = O=C1OC2(c3ccc(O)cc3Oc3cc(O)ccc32)c2ccc(C(=O)*)cc21; ξTetrahydrofuran2carbonyl = O=C(C1CCCO1)*; Cha = N[C@@H](CC1CCCCC1)C(=O)O; AEEA = NCCOCCOCC(=O)O

In the assay with fibrin, “Seq000-PL2: comparative lipopeptide prepared from Seq000(Adoa-Adoa) and DPPE (Ac-WQPCPWESWTFCWDPGGGK([AEEA-AEEA-Tuda-DPPE])-NH2; disulfide 4-12) [reference compound]” registered a Slope of 4.6.

Regarding `CC(=O)N[C@@H](CO)C(=O)NCC(=O)N[C@@H](CO)C(=O)NCC(=O)N[C@@H](CO)C(=O)NCC(=O)N[C@@H](CO)C(=O)NCC(=O)N[C@@H](Cc1c[nH]c2ccccc12)C(=O)N[C@@H](CCC(N)=O)C(=O)N1CCC[C@H]1C(=O)N[C@H]1CSSC[C@@H](C(=O)N[C@@H](Cc2c[nH]c3ccccc23)C(=O)N[C@@H](CC(=O)O)C(=O)N2CCC[C@H]2C(=O)NCC(=O)NCC(=O)NCC(=O)N[C@@H](CCCCNC(=O)c2ccc3c(c2)C(=O)OC32c3ccc(O)cc3Oc3cc(O)ccc32)C(N)=O)NC(=O)[C@H](Cc2ccccc2)NC(=O)[C@H]([C@@H](C)O)NC(=O)[C@H](Cc2c[nH]c3ccccc23)NC(=O)[C@H](CO)NC(=O)[C@H](CCC(=O)O)NC(=O)[C@H](Cc2c[nH]c3ccccc23)NC(=O)[C@@H]2CCCN2C1=O` [Seq024-CF5] (Ac-SGSGSGSGWQPCPWESWTFCWDPGGGK(5FAM)-NH2; disulfide 12-20), the Kd (commonly the equilibrium constant for the complex coming apart) in assay [1] was found to be 0.47 µM.

For `CC(=O)N[C@@H](CCCNC(=N)N)C(=O)NCC(=O)N[C@@H](Cc1c[nH]c2ccccc12)C(=O)N[C@@H](CCC(N)=O)C(=O)N1CCC[C@H]1C(=O)N[C@H]1CSSC[C@@H](C(=O)N[C@@H](Cc2c[nH]c3ccccc23)C(=O)N[C@@H](CC(=O)O)C(=O)N2CCC[C@H]2C(=O)NCC(=O)NCC(=O)NCC(=O)N[C@@H](CCCCNC(=O)c2ccc3c(c2)C(=O)OC32c3ccc(O)cc3Oc3cc(O)ccc32)C(N)=O)NC(=O)[C@H](Cc2ccccc2)NC(=O)[C@H]([C@@H](C)O)NC(=O)[C@H](Cc2c[nH]c3ccccc23)NC(=O)[C@H](CO)NC(=O)[C@H](CCC(=O)O)NC(=O)[C@H](Cc2c[nH]c3ccccc23)NC(=O)[C@@H]2CCCN2C1=O` [Seq052-CF5] (Ac-RGWQPCPWESWTFCWDPGGGK(5FAM)-NH2; disulfide 6-14), the Kd in assay [1] was 0.53 µM.

Regarding `CC(=O)NCC(=O)N[C@@H](Cc1c[nH]c2ccccc12)C(=O)N[C@@H](CCC(N)=O)C(=O)N1CCC[C@H]1C(=O)N[C@H]1CSSC[C@@H](C(=O)N[C@@H](Cc2c[nH]c3ccccc23)C(=O)N[C@@H](CC(=O)O)C(=O)N2CCC[C@H]2C(=O)NCC(=O)NCC(=O)NCC(=O)N[C@@H](CCCCNC(=O)c2ccc3c(c2)C(=O)OC32c3ccc(O)cc3Oc3cc(O)ccc32)C(N)=O)NC(=O)[C@H](Cc2ccccc2)NC(=O)[C@H]([C@@H](C)O)NC(=O)[C@H](Cc2c[nH]c3ccccc23)NC(=O)[C@H](CO)NC(=O)[C@H](CCC(=O)O)NC(=O)[C@H](Cc2c[nH]c3ccccc23)NC(=O)[C@@H]2CCCN2C1=O` [Seq016-CF5] (Ac-GWQPCPWESWTFCWDPGGGK(5FAM)-NH2; disulfide 5-13), the Kd in assay [1] is 0.23 µM.

Regarding `C[C@@H]1NC(=O)[C@@H]2CCCN2C(=O)[C@@H](NC(=O)[C@@H]2CCCN2C(=O)[C@H](CCC(N)=O)NC(=O)[C@H](Cc2c[nH]c3ccccc23)NC(=O)[C@@H](N)CCCNC(=N)N)CSSC[C@@H](C(=O)N[C@@H](Cc2c[nH]c3ccccc23)C(=O)N[C@@H](CC(=O)O)C(=O)N2CCC[C@H]2C(=O)NCC(=O)NCC(=O)NCC(=O)N[C@@H](CCCCNC(=O)c2ccc3c(c2)C(=O)OC32c3ccc(O)cc3Oc3cc(O)ccc32)C(N)=O)NC(=O)[C@H](CC2CCCCC2)NC(=O)[C@H]([C@@H](C)O)NC(=O)[C@H](Cc2c[nH]c3ccccc23)NC(=O)[C@H](CO)NC(=O)[C@H](CCC(=O)O)NC1=O` [Seq057-CF5, RWQPC*PAESWT-Cha-C*WDPGGGK(CF5)-NH2] (H-RWQPCPAESWT[Cha]CWDPGGGK(5FAM)-NH2; disulfide 5-13), the Kd in assay [1] is 0.03 µM.

Regarding `C[C@@H](O)[C@@H]1NC(=O)[C@H](Cc2c[nH]c3ccccc23)NC(=O)[C@H](CO)NC(=O)[C@H](CCC(=O)O)NC(=O)[C@H](Cc2c[nH]c3ccccc23)NC(=O)[C@@H]2CCCN2C(=O)[C@@H](NC(=O)[C@@H]2CCCN2C(=O)[C@H](CCC(N)=O)NC(=O)[C@H](Cc2c[nH]c3ccccc23)NC(=O)C2CCCO2)CSSC[C@@H](C(=O)N[C@@H](Cc2c[nH]c3ccccc23)C(=O)N[C@@H](CC(=O)O)C(=O)N2CCC[C@H]2C(=O)NCC(=O)NCC(=O)NCC(=O)N[C@@H](CCCCNC(=O)c2ccc3c(c2)C(=O)OC32c3ccc(O)cc3Oc3cc(O)ccc32)C(N)=O)NC(=O)[C@H](Cc2ccccc2)NC1=O` (some centres unmarked) [Seq028-CF5] (ξTetrahydrofuran2carbonyl-WQPCPWESWTFCWDPGGGK(5FAM)-NH2; disulfide 4-12), the Kd in assay [1] amounted to 1.21 µM.

In the case of `CC(=O)N[C@@H](CCCNC(=N)N)C(=O)N[C@@H](CCCNC(=N)N)C(=O)NCC(=O)NCC(=O)N[C@@H](Cc1c[nH]c2ccccc12)C(=O)N[C@@H](CCC(N)=O)C(=O)N1CCC[C@H]1C(=O)N[C@H]1CSSC[C@@H](C(=O)N[C@@H](Cc2c[nH]c3ccccc23)C(=O)N[C@@H](CC(=O)O)C(=O)N2CCC[C@H]2C(=O)NCC(=O)NCC(=O)NCC(=O)N[C@@H](CCCCNC(=O)c2ccc3c(c2)C(=O)OC32c3ccc(O)cc3Oc3cc(O)ccc32)C(N)=O)NC(=O)[C@H](Cc2ccccc2)NC(=O)[C@H]([C@@H](C)O)NC(=O)[C@H](Cc2c[nH]c3ccccc23)NC(=O)[C@H](CO)NC(=O)[C@H](CCC(=O)O)NC(=O)[C@H](C)NC(=O)[C@@H]2CCCN2C1=O` [Seq046-CF5] (Ac-RRGGWQPCPAESWTFCWDPGGGK(5FAM)-NH2; disulfide 8-16), the Kd in assay [1] was found to be 0.22 µM.

Consider `C[C@@H](O)[C@@H]1NC(=O)[C@H](Cc2c[nH]c3ccccc23)NC(=O)[C@H](CO)NC(=O)[C@H](CCC(=O)O)NC(=O)[C@H](Cc2c[nH]c3ccccc23)NC(=O)[C@@H]2CCCN2C(=O)[C@@H](NC(=O)[C@@H]2CCCN2C(=O)[C@H](CCC(N)=O)NC(=O)[C@H](Cc2c[nH]c3ccccc23)NC(=O)[C@@H](N)CCCNC(=N)N)CSSC[C@@H](C(=O)N[C@@H](Cc2c[nH]c3ccccc23)C(=O)N[C@@H](CC(=O)O)C(=O)N2CCC[C@H]2C(=O)NCC(=O)NCC(=O)NCC(=O)N[C@@H](CCCCNC(=O)c2ccc3c(c2)C(=O)OC32c3ccc(O)cc3Oc3cc(O)ccc32)C(N)=O)NC(=O)[C@H](Cc2ccccc2)NC1=O` [Seq023-CF5] (H-RWQPCPWESWTFCWDPGGGK(5FAM)-NH2; disulfide 5-13; N-terminus assumed), for which, in assay [1], the dissociation constant (Kd) came out at 0.11 µM.
